The source made the active and inactive calls. The rule behind the calls is not given here.

Series [1] in a line: Neurotoxicity in human SH-SY5Y cells assessed as reduction in cell population at 80 uM incubated for 24 hrs by MTT assay. (In general: Tetrazolium assays rely on reduction of a dye to a coloured formazan, in cell work by metabolically active cells.)
Series [2] relates to Rattus norvegicus. Put plainly: Antialzheimer activity against scopolamine-induced amnesia in male Wistar rat model assessed as restoration of memory function by measuring percentage spontaneous alteration at 5 mg/kg, po preadministered with compound for 30 mins starting from 7 th day trail followed by scopolamine administration and measured after 5 mins by Y maze test. Type of series: functional, organism-based. As to conditions: time 35.0 min.

In series [3] the test system is Rattus norvegicus. Description: Antialzheimer activity against scopolamine-induced amnesia in male Wistar rat model assessed as increase in total arm enteries at 5 mg/kg, po preadministered with compound for 30 mins starting from 7 th day trail followed by scopolamine administration and measured after 5 mins by Y maze test. Format: functional, organism-based. Particulars: time 35.0 min.

In series [4] the test system is Rattus norvegicus. Description: Reversal of amyloid beta (1 to 42 residues) induced cognitive impairment in Wistar rat assessed as reduction in escape latency time at 5 mg/kg, po pretreated with amyloid beta for 7 days followed by compound administration for 9 days and measured after 1 days by Morris water maze test. Type of series: functional, organism-based. Particulars: time 10.0 day.

For series [5], the system named is Rattus norvegicus. Put plainly: Reversal of amyloid beta (1 to 42 residues) induced cognitive impairment in Wistar rat assessed as increase in platform crossings at 5 mg/kg, po pretreated with amyloid beta for 7 days followed by compound administration for 9 days and measured after 1 days by Morris water maze test. Type of series: functional, organism-based. Particulars: time 10.0 day.

Series [6] concerns Rattus norvegicus. Description: Reversal of amyloid beta (1 to 42 residues) induced cognitive impairment in Wistar rat assessed as reduction in escape latency time at 5 mg/kg, po pretreated with amyloid beta for 7 days followed by compound administration for 9 days and measured after 5 days by Morris water maze test. Format: functional, organism-based. Particulars: time 14.0 day.

For series [7], the system named is Rattus norvegicus. Description: Reversal of amyloid beta (1 to 42 residues) induced cognitive impairment in Wistar rat assessed as increase in platform crossings at 5 mg/kg, po pretreated with amyloid beta for 7 days followed by compound administration for 9 days and measured after 5 days by Morris water maze test. Format: functional, organism-based. As to conditions: time 14.0 day.

Series [8] concerns Rattus norvegicus. Description: Reversal of amyloid beta (1 to 42 residues) induced cognitive impairment in Wistar rat assessed as reduction in focal gliosis in cerebral cortex at 5 mg/kg, po pretreated with amyloid beta for 7 days followed by compound administration for 9 days and measured after 5 days by Nissl's staining based analysis. Particulars: time 14.0 day. Format: functional, organism-based.

Series [9] deals with Rattus norvegicus. Description: Reversal of amyloid beta (1 to 42 residues) induced cognitive impairment in Wistar rat assessed as reduction in neural dispersion at DG region in hippocampus at 5 mg/kg, po pretreated with amyloid beta for 7 days followed by compound administration for 9 days and measured after 5 days by Nissl's staining based analysis. Format: functional, organism-based. As to conditions: time 14.0 day.

The test system of series [10] is Rattus norvegicus. Put plainly: Reversal of amyloid beta (1 to 42 residues) induced cognitive impairment in Wistar rat assessed as reduction in appearance of pyknotic neuron bodies in hippocampus at 5 mg/kg, po pretreated with amyloid beta for 7 days followed by compound administration for 9 days and measured after 5 days by Nissl's staining based analysis. Type of series: functional, organism-based. Particulars: time 14.0 day.

Series [11] concerns Rattus norvegicus. Description: Reversal of amyloid beta (1 to 42 residues) induced cognitive impairment in Wistar rat assessed as decrease in BACE-1 protein level at 5 mg/kg, po pretreated with amyloid beta for 7 days followed by compound administration for 9 days and measured after 5 days by Western blot analysis. Format: functional, organism-based. Particulars: time 14.0 day. (In western blotting, separated proteins are transferred to a membrane and probed.)

In series [12] the test system is Rattus norvegicus. Description: Reversal of amyloid beta (1 to 42 residues) induced cognitive impairment in Wistar rat assessed as decrease in alpha-synuclein protein level at 5 mg/kg, po pretreated with amyloid beta for 7 days followed by compound administration for 9 days and measured after 5 days by Western blot analysis. Particulars: time 14.0 day. Type of series: functional, organism-based.

Series [13] relates to Rattus norvegicus. Put plainly: Reversal of amyloid beta (1 to 42 residues) induced cognitive impairment in Wistar rat assessed as decrease in APP protein level at 5 mg/kg, po pretreated with amyloid beta for 7 days followed by compound administration for 9 days and measured after 5 days by Western blot analysis. Format: functional, organism-based. Particulars: time 14.0 day.

For series [14], the system named is Rattus norvegicus. Put plainly: Reversal of amyloid beta (1 to 42 residues) induced cognitive impairment in Wistar rat assessed as decrease in Tau protein level at 5 mg/kg, po pretreated with amyloid beta for 7 days followed by compound administration for 9 days and measured after 5 days by Western blot analysis. Type of series: functional, organism-based. Particulars: time 14.0 day.

In series [15] the test system is Rattus norvegicus. Put plainly: Reversal of amyloid beta (1 to 42 residues) induced cognitive impairment in Wistar rat assessed as decrease in BACE-1 level in DG region of hippocampus at 5 mg/kg, po pretreated with amyloid beta for 7 days followed by compound administration for 9 days and measured after 5 days by immuno histochemical analysis. Type of series: functional, organism-based. As to conditions: time 14.0 day.

Series [16] relates to Rattus norvegicus. Put plainly: Reversal of amyloid beta (1 to 42 residues) induced cognitive impairment in Wistar rat assessed as decrease in BACE-1 level in CA1 region of hippocampus at 5 mg/kg, po pretreated with amyloid beta for 7 days followed by compound administration for 9 days and measured after 5 days by immuno histochemical analysis. As to conditions: time 14.0 day. Type of series: functional, organism-based.

Series [17] has as its system Rattus norvegicus. Put plainly: Reversal of amyloid beta (1 to 42 residues) induced cognitive impairment in Wistar rat assessed as decrease in BACE-1 level in CA3 region of hippocampus at 5 mg/kg, po pretreated with amyloid beta for 7 days followed by compound administration for 9 days and measured after 5 days by immuno histochemical analysis. Type of series: functional, organism-based. Particulars: time 14.0 day.

Series [18] deals with Rattus norvegicus. Put plainly: Reversal of amyloid beta (1 to 42 residues) induced cognitive impairment in Wistar rat assessed as decrease in amyloid-beta level in DG region of hippocampus at 5 mg/kg, po pretreated with amyloid beta for 7 days followed by compound administration for 9 days and measured after 5 days by immuno histochemical analysis. Format: functional, organism-based. As to conditions: time 14.0 day.

Series [19] relates to Rattus norvegicus. Description: Reversal of amyloid beta (1 to 42 residues) induced cognitive impairment in Wistar rat assessed as decrease in amyloid-beta level in CA1 region of hippocampus at 5 mg/kg, po pretreated with amyloid beta for 7 days followed by compound administration for 9 days and measured after 5 days by immuno histochemical analysis. Type of series: functional, organism-based. As to conditions: time 14.0 day.

Series [20] relates to Rattus norvegicus. Description: Reversal of amyloid beta (1 to 42 residues) induced cognitive impairment in Wistar rat assessed as decrease in amyloid-beta level in CA3 region of hippocampus at 5 mg/kg, po pretreated with amyloid beta for 7 days followed by compound administration for 9 days and measured after 5 days by immuno histochemical analysis. Type of series: functional, organism-based. As to conditions: time 14.0 day.

Regarding `COc1cc2c(cc1OC)C(=O)C(CC1CCN(Cc3ccccc3)CC1)C2` (stereo not given) [DONEPEZIL], in series [1], the Activity entry is reported as “Non-Toxic”. In addition, the outcome in the series on Rattus norvegicus [2], in the series on Rattus norvegicus [3], in the series on Rattus norvegicus [6], in the series on Rattus norvegicus [7], in the series with Rattus norvegicus [8] and in the series with Rattus norvegicus [9] was Active. Further, the outcome with Rattus norvegicus [10], in the series on Rattus norvegicus [11], in the series with Rattus norvegicus [12], in the series with Rattus norvegicus [13], in the series with Rattus norvegicus [14] and in the series with Rattus norvegicus [15] was Active. Moreover, the result in the series with Rattus norvegicus [16], in the series on Rattus norvegicus [17], in the series with Rattus norvegicus [18], with Rattus norvegicus [19] and in the series with Rattus norvegicus [20] was Active. For the same molecule, the outcome in the series on Rattus norvegicus [4] and in the series on Rattus norvegicus [5] was inactive.

These data come from ChEMBL document CHEMBL5500364, “Design, synthesis, and biological evaluation of some 2-(3-oxo-5,6-diphenyl-1,2,4-triazin-2(3H)-yl)-N-phenylacetamide hybrids as MTDLs for Alzheimer's disease therapy” (Eur J Med Chem, 2024).
